Measurements published in patent US9695155B2, “Herbicidal substituted pyrimidinyloxy benzene compounds” (E. I. DU PONT DE NEMOURS AND COMPANY, priority 2013, dated 2017).

How the values were obtained:
[1] = system: barnyardgrass; test: Test A preemergence; assay type: in vivo, Echinochloa crus-galli; conditions: for Barnyardgrass plant response rating: 500 g ai/ha
Outline: (§1)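 Visual injury scored 0–100 (100 = complete control) against untreated controls about 10 days after treatment in a greenhouse. Test chemicals, formulated with surfactant in non-phytotoxic solvent, were sprayed on soil preemergence or on 2-10 cm, one- to two-leaf plants postemergence.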

[2] = system: large (Lg) crabgrass; test: Test A preemergence; assay type: in vivo, Digitaria sanguinalis; conditions: for Crabgrass, Large plant response rating: 500 g ai/ha
Outline: as §1

[3] = system: giant foxtail; test: Test A preemergence; assay type: in vivo, Setaria faberii; conditions: for Foxtail, Giant plant response rating: 500 g ai/ha
Outline: as §1

[4] = system: morningglory; test: Test A preemergence; assay type: in vivo, Ipomoea spp.; conditions: for Morningglory plant response rating: 500 g ai/ha
Outline: as §1

[5] = system: pigweed; test: Test A preemergence; assay type: in vivo, Amaranthus retroflexus; conditions: for Pigweed plant response rating: 500 g ai/ha
Outline: as §1

[6] = system: velvetleaf; test: Test A preemergence; assay type: in vivo, Abutilon theophrasti; conditions: for Velvetleaf plant response rating: 500 g ai/ha
Outline: as §1

[7] = system: wheat; test: Test A preemergence; assay type: in vivo, Triticum aestivum; conditions: for Wheat plant response rating: 500 g ai/ha
Outline: as §1

[8] = system: corn; test: Test A preemergence; assay type: in vivo, Zea mays; conditions: for Corn plant response rating: 500 g ai/ha
Outline: as §1

[9] = system: barnyardgrass; test: Test A postemergence; assay type: in vivo, Echinochloa crus-galli
Outline: as §1

[10] = system: large (Lg) crabgrass; test: Test A postemergence; assay type: in vivo, Digitaria sanguinalis
Outline: as §1

[11] = system: giant foxtail; test: Test A postemergence; assay type: in vivo, Setaria faberii
Outline: as §1

[12] = system: morningglory; test: Test A postemergence; assay type: in vivo, Ipomoea spp.
Outline: as §1

[13] = system: pigweed; test: Test A postemergence; assay type: in vivo, Amaranthus retroflexus
Outline: as §1

[14] = system: velvetleaf; test: Test A postemergence; assay type: in vivo, Abutilon theophrasti
Outline: as §1

[15] = system: wheat; test: Test A postemergence; assay type: in vivo, Triticum aestivum
Outline: as §1

[16] = system: corn; test: Test A postemergence; assay type: in vivo, Zea mays
Outline: as §1

[17] = system: rice; test: Test B flooded paddy test; assay type: in vivo, Oryza sativa; conditions: Flood, 250 g ai/ha; 0 to 100 scale where 0 is no effect and 100 is complete control
Outline: (§2)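 Flooded to 3 cm at the 2-leaf stage, pots received compound through the paddy water and were kept at that depth under greenhouse conditions. After 13–15 days, effect was rated by eye relative to controls, 0 = none and 100 = complete control.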

[18] = system: sedge, umbrella; test: Test B flooded paddy test; assay type: in vivo, Cyperus difformis; conditions: Flood, 250 g ai/ha; 0 to 100 scale where 0 is no effect and 100 is complete control
Outline: as §2

[19] = system: Heteranthera limosa; test: Test B flooded paddy test; assay type: in vivo; conditions: Flood, 250 g ai/ha; 0 to 100 scale where 0 is no effect and 100 is complete control
Outline: as §2

[20] = system: barnyardgrass; test: Test B flooded paddy test; assay type: in vivo, Echinochloa crus-galli; conditions: Flood, 250 g ai/ha; 0 to 100 scale where 0 is no effect and 100 is complete control
Outline: as §2

[21] = 125 g ai/ha, 0 to 100 scale where 0 is no effect and 100 is complete control
[22] = 0 to 100 scale, 0 no effect, 100 complete control, approx. 10 days
[23] = 500 g ai/ha, 0 to 100 scale, 0 no effect, 100 complete control
[24] = 0 to 100 scale where 0 is no effect and 100 is complete control
[25] = 500 g ai/ha, 0 to 100 scale where 0 is no effect and 100 is complete control

Clc1cnc(Oc2ccccc2-n2cc(-c3ccccc3)cn2)nc1 [Compound 22]
20: Barnyardgrass plant response rating [1, 22] | Plant response rating, Crabgrass, Large [2, 21] | Plant response rating, Foxtail, Giant [3, 21] | Plant response rating, Pigweed [5, 21] | Velvetleaf plant response rating [6, 22] | Plant response rating, Barnyardgrass [20]
80: Plant response rating, Morningglory [12, 21] | Plant response rating, Sedge, Umbrella [18]
40: Plant response rating, Foxtail, Giant [11, 21] | Plant response rating, Rice [17]
50: Plant response rating, Barnyardgrass [9, 21] | Plant response rating, Pigweed [13, 21] | Plant response rating, Velvetleaf [14, 21]
30: Plant response rating, Crabgrass, Large [10, 21] | Plant response rating, Corn [16, 23]
0: Plant response rating, Barnyardgrass [1, 21] | Plant response rating, Morningglory [4, 21] | Morningglory plant response rating [4, 22] | Plant response rating, Velvetleaf [6, 21] | Plant response rating, Wheat [7, 21] | Wheat plant response rating [7, 22] | Plant response rating, Corn [8, 21] | Corn plant response rating [8, 22] | Plant response rating, Wheat [15, 21] | Plant response rating, Wheat [15, 23] | Plant response rating, Corn [16, 21]
65: Plant response rating, Ducksalad [19]
90: Crabgrass, Large plant response rating [2, 22] | Foxtail, Giant plant response rating [3, 22] | Pigweed plant response rating [5, 22] | Plant response rating, Foxtail, Giant [11, 23] | Plant response rating, Morningglory [12, 23]
100: Plant response rating, Pigweed [13, 23] | Plant response rating, Velvetleaf [14, 23]
70: Plant response rating, Barnyardgrass [9, 23] | Plant response rating, Crabgrass, Large [10, 23]

FC(F)c1cccc(Oc2ncc(Cl)cn2)c1-n1cc(Cl)cn1 [Compound 209]
10: Morningglory plant response rating (0 to 100 scale) ([4]; 125 g ai/ha)
30: Corn plant response rating [16, 21] | Plant response rating, Barnyardgrass [20]
75: Plant response rating, Ducksalad [19]
70: Morningglory plant response rating [4, 24] | Crabgrass, Large plant response rating [10, 21] | Foxtail, Giant plant response rating [11, 21] | Plant response rating, Wheat [15, 25] | Plant response rating, Corn [16, 25]
20: Wheat plant response rating [7, 24] | Corn plant response rating [8, 24]
50: Morningglory plant response rating [12, 21]
60: Barnyardgrass plant response rating (0 to 100 scale, 0 is no effect, 100 is complete control) ([1]; 125 g ai/ha) | Plant response rating, Sedge, Umbrella [18]
0: Wheat plant response rating (0 to 100 scale) ([7]; 125 g ai/ha) | Corn plant response rating (0 to 100 scale) ([8]; 125 g ai/ha) | Wheat plant response rating [15, 21] | Plant response rating, Rice [17]
40: Barnyardgrass plant response rating [9, 21]
90: Velvetleaf plant response rating (0 to 100 scale) ([6]; 125 g ai/ha) | Velvetleaf plant response rating [6, 24] | Plant response rating, Crabgrass, Large [10, 25] | Plant response rating, Foxtail, Giant [11, 25] | Plant response rating, Morningglory [12, 25]
100: Barnyardgrass plant response rating [1, 24] | Crabgrass, Large plant response rating (0 to 100 scale) ([2]; 125 g ai/ha) | Crabgrass, Large plant response rating [2, 24] | Foxtail, Giant plant response rating (0 to 100 scale) ([3]; 125 g ai/ha) | Foxtail, Giant plant response rating [3, 24] | Pigweed plant response rating (0 to 100 scale) ([5]; 125 g ai/ha) | Pigweed plant response rating [5, 24] | Plant response rating, Barnyardgrass [9, 25] | Pigweed plant response rating [13, 21] | Plant response rating, Pigweed [13, 25] | Velvetleaf plant response rating [14, 21] | Plant response rating, Velvetleaf [14, 25]
